Assay results from patent US8114902B2, “2-aminobutanol compound and use thereof for medical purposes” (Mitsubishi Tanabe Pharma Corporation, priority 2006, dated 2012).

Legend:
[1] = Action on heart rate in rat telemetry; format: in vivo, male Sprague-Dawley (IGS) rats; conditions: oral administration in 0.5% hydroxypropylmethylcellulose, up to the dose of 10 mg/kg body weight, heart rate measured from 24 hr before to 72 hr after administration
Description: Action on Heart Rate in Rat Telemetry
Male Sprague-Dawley (IGS) rats were anesthetized by intraperitoneal administration of Nembutal (manufactured by DAINIPPON PHARMACEUTICAL CO., LTD.), and a pressure sensor connected to a telemetric transmitter (TL11M2-C50-PTX, manufactured by Data Sciences International) was inserted into the abdominal artery, whereby the transmitter was subcutaneously set in the abdomen. The data of blood pressure and heart rate were recorded by an analysis software (Dataquest A.R.T., Data Sciences International) via a receiver (RPC-1, manufactured by Data Sciences International). After confirmation of the recovery of the circadian rhythm of the heart rate after elapse of 10 days to 2 weeks postoperation, the rats were subjected to the experiment. The compound of the present invention was suspended in 0.5% hydroxypropylmethylcellulose (manufactured by Shin-Etsu Chemical Co., Ltd.) and administered orally. The heart rate was measured from 24 hr before administration to 72 hr after administration.

[2] = tested on: mouse peripheral blood lymphocyte count; assay: Evaluation of mouse peripheral blood lymphocyte count-decreasing effect; format: in vivo, male BALB/cAnNCrj mice; conditions: intraperitoneal administration in 20% cyclodextrin, blood collected 24 hr after administration, flow cytometer count
Description: Evaluation of Mouse Peripheral Blood Lymphocyte Count-Decreasing Effect
The compound of the present invention was dissolved or suspended in 20% cyclodextrin (manufactured by NIHON SHOKUHIN KAKO CO., LTD.), and intraperitoneally administered to 7- to 10-week-old male BALB/cAnNCrj mice (Charles River Laboratories Japan, Inc.) at a dose of 0.001-10 mg/kg body weight. At 24 hr after the administration of the compound of the present invention, the peripheral blood (about 0.3 ml) was collected using a tuberculin syringe (manufactured by TERUMO CORPORATION) treated with heparin sodium (manufactured by NovoNordisk) from the postcava of the mice under ether anesthesia. The blood (0.1 ml) was hemolyzed in an automatic hemolysis treatment apparatus (TQ-Prep, manufactured by Beckman Instruments•Coulter) and, using a Flow Cytometer (CYTOMICS FC 500, manufactured by Beckman Instruments•Coulter), the lymphocytes were counted by a gating method using the forward and side scattering of the laser beam as an index and Flow-Count™ Fluorospheres (manufactured by Beckman Instruments•Coulter), which are the standard particles in a known number, as the internal standard. Taking the lymphocyte count of the vehicle group as 100%, the dose necessary for decreasing the lymphocyte count thereof to 50% was calculated and taken as ED50 value (mg/kg body weight).

Cc1ccc(Sc2ccc(-c3ccc(CCC(N)(CO)CO)cc3)c(F)c2)cc1 [Example 4, 2-amino-2-{2-[2′-fluoro-4′-(4-methylphenylthio)biphenyl-4-yl]ethyl}propane-1,3-diol]
influence on heart rate in rats (telemetry) [1]: did not influence the heart rate
mouse peripheral blood lymphocyte count-decreasing effect, ED50 value (dose necessary for decreasing the lymphocyte count to 50% of vehicle group) [2]: 0.05 mg/kg body weight

Cc1ccc(Sc2ccc(-c3ccc(CCC(N)(CO)CO)c(Cl)c3)c(F)c2)cc1 [Example 18, 2-amino-2-{2-[3-chloro-2′-fluoro-4′-(4-methylphenylthio)biphenyl-4-yl]ethyl}propane-1,3-diol]
mouse peripheral blood lymphocyte count-decreasing effect, ED50 value (dose necessary for decreasing the lymphocyte count to 50% of vehicle group) [2]: 0.04 mg/kg body weight
